Results taken from US7939559B2, “Lipase inhibitors” (Suntory Holdings Limited, priority 2004, dated 2011).
“Also recorded” adds a separate entry of the source.

Target: T1, porcine pancreatic lipase (Sus scrofa, UniProt P00591)
T1 construct: purchased Sigma
T1 sequence (P00591 1-450): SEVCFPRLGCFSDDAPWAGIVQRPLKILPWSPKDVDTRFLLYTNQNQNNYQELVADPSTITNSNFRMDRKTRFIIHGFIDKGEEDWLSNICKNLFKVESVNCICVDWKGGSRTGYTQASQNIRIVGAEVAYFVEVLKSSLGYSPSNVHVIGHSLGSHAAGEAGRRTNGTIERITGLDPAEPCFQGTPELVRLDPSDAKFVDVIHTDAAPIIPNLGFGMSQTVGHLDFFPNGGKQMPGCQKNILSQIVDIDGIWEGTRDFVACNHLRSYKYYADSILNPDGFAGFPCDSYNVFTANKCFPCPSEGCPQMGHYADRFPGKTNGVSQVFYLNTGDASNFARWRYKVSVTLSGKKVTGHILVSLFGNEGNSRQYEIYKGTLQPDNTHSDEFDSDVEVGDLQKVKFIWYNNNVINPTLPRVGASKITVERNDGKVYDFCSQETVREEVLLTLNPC
Assay: Lipase inhibitory activity assay (4-MUO fluorescent substrate)
Assay type: biochemical
Settings: for IC50 / lipase inhibitory activity (in words): porcine pancreatic lipase; for IC50: substrate 4-MUO, 25° C., 30 minutes, pH 8.0; for lipase inhibitory activity (in words): 4-MUO, comparison among major tea catechins
Protocol: A lipase activity assay was performed by using the oleate ester of fluorescent 4-methylumbelliferone (4-MUO) as a substrate to measure the fluorescence of 4-methylumbelliferone produced by reaction.
The buffer used for the assay was 13 mM Tris-HCl (pH 8.0) containing 150 mM NaCl, 1.36 mM CaCl2. The enzyme assay was performed using a 0.1 M solution of the substrate 4-MUO (Sigma) in DMSO diluted 1:1000 in said buffer and a solution of porcine pancreatic lipase (Sigma) prepared at 400 U/ml also in said buffer.
An enzymatic reaction was started by adding 25 μl of the lipase/buffer solution after 50 μl of the 4-MUO/buffer solution and 25 μl of distilled water (or an aqueous solution of each sample) were added and mixed in a 96-well microplate at 25° C. After the reaction was performed for 30 minutes, the reaction was stopped by adding 100 μl of a 0.1 M citrate buffer (pH 4.2) and the fluorescence of 4-methylumbelliferone produced by the reaction (excitation 355 nm, emission 460 nm) was measured using a fluorescence plate reader (Fluoroskan Asent CF from Labsystems).
The inhibitory activity of each test sample was determined as IC50(μM), i.e. the amount of the sample giving 50% inhibition of the activity of the control (distilled water).

In the case of `Oc1cc(O)c2c(c1)O[C@H](c1ccc(O)c(O)c1)[C@H](O)C2` [compound 2, (−)-epicatechin], the IC50 is reported as > 20000 nM.
In the case of `COc1cc(C(=O)O[C@@H]2Cc3c(O)cc(O)cc3O[C@@H]2c2ccc(O)c(O)c2)cc(O)c1O` [compound 4, (−)-epicatechin 3-O-(3′-O-methyl-gallate)], the IC50 is reported as 680 nM.
`Oc1cc(O)c2c(c1)O[C@H](c1cc(O)c(O)c(O)c1)[C@H](O)C2` [compound 5, (−)-epigallocatechin] was tested, and the IC50 was > 20000 nM.
With `O=C(O[C@@H]1Cc2c(O)cc(O)cc2O[C@@H]1c1cc(O)c(O)c(O)c1)c1cc(O)c(O)c(O)c1` [compound 6, (−)-epigallocatechin 3-O-gallate] the “lipase inhibitory activity (in words)” value was “showed lipase inhibitory activity; also recorded: showed the strongest activity among these catechins” and the IC50 was 349 nM.
With `O=C(Oc1cc(O)cc2c1C[C@@H](OC(=O)c1cc(O)c(O)c(O)c1)[C@@H](c1cc(O)c(O)c(O)c1)O2)c1cc(O)c(O)c(O)c1` [compound 7, (−)-epigallocatechin 3,5-di-O-gallate] the “lipase inhibitory activity relative to EGCG (6)” value (fold higher activity than (−)-epigallocatechin 3-O-gallate) was “about 3.5 times” and the IC50 was 98 nM.
With `O=C(/C=C/c1ccc(O)cc1)O[C@@H]1Cc2c(O)cc(O)cc2O[C@@H]1c1cc(O)c(O)c(O)c1` [compound 8, (−)-epigallocatechin 3-O-p-coumaroate] the IC50 was 885 nM.
For `Oc1cc(O)c2c(c1)O[C@H](c1ccc(O)c(O)c1)[C@@H](O)C2` [compound 9, (+)-catechin], the “lipase inhibitory activity (in words)” value was “did not show lipase inhibitory activity” and the IC50 was > 20000 nM.
For `O=C(O[C@@H]1Cc2c(O)cc(O)cc2O[C@H]1c1ccc(O)c(O)c1)c1cc(O)c(O)c(O)c1` [compound 10, (−)-catechin 3-O-gallate], the “lipase inhibitory activity (in words)” value was “showed lipase inhibitory activity” and the IC50 was 543 nM.
For `Oc1cc(O)c2c(c1)O[C@H](c1cc(O)c(O)c(O)c1)[C@@H](O)C2` [compound 11, (+)-gallocatechin], the IC50 was > 20000 nM.
`O=C(O[C@@H]1Cc2c(O)cc(O)cc2O[C@H]1c1cc(O)c(O)c(O)c1)c1cc(O)c(O)c(O)c1` [compound 12, (−)-gallocatechin 3-O-gallate] was tested, and the “lipase inhibitory activity (in words)” value was “showed lipase inhibitory activity” and the IC50 was 437 nM.
In the case of `O=C(Oc1cc(O)cc2c1C[C@H](OC(=O)c1cc(O)c(O)c(O)c1)[C@@H](c1cc(O)c(O)c(O)c1)O2)c1cc(O)c(O)c(O)c1` [compound 13, (−)-gallocatechin 3,5-di-O-gallate], the “lipase inhibitory activity relative to GCG (12)” value (fold higher activity than (−)-gallocatechin 3-O-gallate) is reported as “about twice higher” and the IC50 is reported as 213 nM.
With `O=C1O[C@H]([C@@H](O)CO)C2(O)Oc3cc(O)c4c(c3C12O)O[C@H](c1cc(O)c(O)c(O)c1)[C@H](O)C4` (stereo partly drawn) [compound 14, 8-C-ascorbyl(−)-epigallocatechin] the IC50 was 646 nM.
For `O=C(O[C@@H]1Cc2c(O)cc3c(c2O[C@@H]1c1cc(O)c(O)c(O)c1)C1(O)C(=O)O[C@H]([C@@H](O)CO)C1(O)O3)c1cc(O)c(O)c(O)c1` (stereo partly drawn) [compound 15, 8-C-ascorbyl(−)-epigallocatechin 3-O-gallate], the IC50 was 791 nM.
For “(−)-epiafzelechin 3-O-gallate [compound 1]”, the IC50 was 2580 nM.
For “(−)-epicatechin 3-O-gallate [compound 3]”, the “lipase inhibitory activity (in words)” value was “showed lipase inhibitory activity” and the IC50 was 452 nM.
